Laboratory results taken from PMC8309759, “A Dual-Sensor-Based Screening System for In Vitro Selection of TDP1 Inhibitors” (Sensors (Basel, Switzerland), 2021).
Read-outs that look alike come from different tables or passages of the source.

Legend:
topoisomerase 1 (TOP1) = molecular target: T1, topoisomerase 1 (TOP1) (Homo sapiens, UniProt P11387); experiment: REEAD cleavage-ligation assay with purified TOP1, […] CPT; type: biochemical
T1 sequence (P11387 2-765): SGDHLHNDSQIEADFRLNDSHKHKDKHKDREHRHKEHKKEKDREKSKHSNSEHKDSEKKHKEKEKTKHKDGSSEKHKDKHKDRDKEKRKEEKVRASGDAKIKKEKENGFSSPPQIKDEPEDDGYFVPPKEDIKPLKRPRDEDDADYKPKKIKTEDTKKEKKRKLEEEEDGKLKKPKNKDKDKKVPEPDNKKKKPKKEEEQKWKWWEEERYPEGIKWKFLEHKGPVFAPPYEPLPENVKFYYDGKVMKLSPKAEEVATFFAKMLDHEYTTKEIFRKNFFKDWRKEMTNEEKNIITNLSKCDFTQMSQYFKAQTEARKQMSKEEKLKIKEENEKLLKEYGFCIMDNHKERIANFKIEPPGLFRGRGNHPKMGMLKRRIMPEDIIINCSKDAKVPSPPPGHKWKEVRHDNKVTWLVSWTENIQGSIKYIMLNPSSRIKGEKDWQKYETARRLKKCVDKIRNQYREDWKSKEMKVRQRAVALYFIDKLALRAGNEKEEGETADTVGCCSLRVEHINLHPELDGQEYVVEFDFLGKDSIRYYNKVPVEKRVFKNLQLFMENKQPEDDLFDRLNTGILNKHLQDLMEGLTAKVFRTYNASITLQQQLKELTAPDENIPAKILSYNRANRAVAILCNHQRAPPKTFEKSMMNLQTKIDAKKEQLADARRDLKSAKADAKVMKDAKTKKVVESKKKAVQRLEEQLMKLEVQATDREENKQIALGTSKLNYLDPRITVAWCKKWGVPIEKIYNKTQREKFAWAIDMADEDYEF

[1] = molecular target: tyrosyl-DNA phosphodiesterase 1 (TDP1) (Homo sapiens, UniProt Q9NUW8); experiment: fluorescent hairpin DNA sensor (ATTO488/BHQ1) assay with purified human TDP1, 13-point dose response; type: biochemical
Chain of tyrosyl-DNA phosphodiesterase 1 (TDP1) (Q9NUW8 whole entry): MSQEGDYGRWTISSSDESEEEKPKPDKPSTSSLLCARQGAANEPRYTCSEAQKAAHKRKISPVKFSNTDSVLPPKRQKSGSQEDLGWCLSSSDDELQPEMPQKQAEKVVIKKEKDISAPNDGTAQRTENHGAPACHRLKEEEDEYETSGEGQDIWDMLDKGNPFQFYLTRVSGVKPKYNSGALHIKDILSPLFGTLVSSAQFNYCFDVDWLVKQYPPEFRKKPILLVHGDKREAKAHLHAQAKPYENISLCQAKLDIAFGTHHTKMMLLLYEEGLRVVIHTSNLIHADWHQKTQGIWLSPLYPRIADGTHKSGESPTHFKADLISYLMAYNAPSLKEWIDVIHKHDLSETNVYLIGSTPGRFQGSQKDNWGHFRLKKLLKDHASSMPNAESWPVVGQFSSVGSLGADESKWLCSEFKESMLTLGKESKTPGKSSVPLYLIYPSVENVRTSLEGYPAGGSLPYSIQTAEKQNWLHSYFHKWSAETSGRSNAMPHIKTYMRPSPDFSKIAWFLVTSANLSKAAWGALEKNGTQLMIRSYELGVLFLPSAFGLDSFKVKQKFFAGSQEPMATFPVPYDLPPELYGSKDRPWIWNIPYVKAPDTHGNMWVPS

Compound | IC50 [1] | further results
CC[C@@]1(O)C(=O)OCc2c1cc1n(c2=O)Cc2cc3ccccc3nc2-1 [CPT, camptothecin] | – | REEAD cleavage-ligation assay with purified TOP1, 80 μM CPT (topoisomerase 1 (TOP1)): CPT control is a positive control for TOP1 inhibition.
FC(F)(F)c1ccc(C2CC(c3ccccc3)c3cccc(P(=S)(c4ccccc4)c4ccccc4)c3N2)cc1 (stereo not shown) [PSTHQ-2] | 4.28 µM | –
COc1ccc(-c2cc(-c3ccc([N+](=O)[O-])cc3)nc3cccnc23)cc1 [NAF-15] | – | IC50 ([1]; read-out: IC50): 37.8 µM
O=[N+]([O-])c1ccc(C2CC(c3ccccc3)c3cccc(P(=S)(c4ccccc4)c4ccccc4)c3N2)cc1 (stereo not shown) [PSTHQ-13] | 13.1 µM | –
